In US20240122179A1, “AUXINIC HERBICIDES AND METHODS OF USE THEREOF” (CORTEVA AGRISCIENCE LLC, priority 2021, published 2024):
Read-outs that look alike come from different tables or passages of the source.

Key:
Assay in all cases: Postemergence herbicide evaluation, percent reduction in plant size vs untreated control, 21 days after treatment
[1] = test system: Amaranthus palmeri (AMAPA); assay type: in vivo, Amaranthus palmeri (Palmer amaranth); conditions: post-emergence, 504 h, postemergence, read-out: Control/Injury; for pest or weed control at 140 g/ha: rate 140 g ae/ha; for pest or weed control at 280 g/ha: rate 280 g ae/ha
Method: (§1) Plants were grown in a soil media composed of 90% by volume Promix BX (Premier Tech Horticulture, Quakertown, PA) and 10% Profile Greens Grade (Profile Products LLC, Buffalo Grove, IL). Promix BX contains approximately 83% Sphagnum Peat Moss, 13% Perlite, 5% vermiculite, and proprietary amounts of limestone, starter fertilizer, and wetting agent. Profile Greens Grade is a sand-sized granule formed from calcining illite and montmorillonite clay. Several seeds of each species were planted in 10 cm square pots and top watered twice daily. Plant material was propagated in a warm greenhouse with temperature ranging from 25 to 28° C. and 50 to 60% relative humidity at the Corteva Global Headquarters (Indianapolis, Indiana, USA). Natural light was supplemented with 1000-watt metal halide overhead lamps with an average illumination of 500 μE m^−2 s^−1 photosynthetic active radiation for 16 consecutive hours each day. Plants were top-watered prior to herbicide application and sub-watered after herbicide application.
(§2) Appropriate amounts of test materials were weighed out into glass vials in their technical form to deliver either 140 or 280 g acid equivalent (ae)/ha. The samples were dissolved in 3 ml of Solvent 1. Solvent 1 is 97% acetone and 3% dimethyl sulfoxide and serves as a general-purpose solvent (GPS) for dissolving technical materials. […] The samples were then diluted to their final concentration using 17 ml of solvent 2 for a total of 20 ml of spray solution. Solvent 2 contains 41.58% GPS, 45.53% water, 11.88% isopropyl alcohol, 0.99% crop oil concentrate and 0.02% Trition X-155 surfactant. All percentages are listed on a volume basis. Dicamba diglycolamine was applied as a formulated herbicide, Clarity™ and diluted with solvent 2 to compare all materials in the same spray solution.
(§3) Herbicide applications were made to 3 to 4 replicates of each plant species at the 2 to 8 leaf stage, depending on the species. Treatments were applied with a research track-sprayer (Generation III Research Sprayer manufactured by DeVries Manufacturing in Hollandale, MN, USA) calibrated to deliver a spray volume of 187 L/ha. The track-sprayer was fitted with an 8003E nozzle from Spray Systems Company (North Avenue and Schmale Road, P.O. Box 7900, Wheaton, IL 60187), and used a spray pressure of 276 kPa pressure and a speed of 3.1 km/h. The nozzle height was 46 cm above the plant canopy. The experimental design used for the trials was a randomized complete block with 3 or 4 replications per treatment. After application, plants were placed on carts according to the randomization and returned to the greenhouse. Plants were sub-watered after treatment with Indianapolis city water or fertilized three times a week with a commercial fertilizer solution (Jack's Professional 15-5-15 4 Ca 2 Mg fertilizer (manufactured by JR PETERS INC., 6656 Grant Way, Allentown, PA 18106; www.jrpeters.com). Percent visual control assessments were made on a scale of 0 to 100% (where 0 was no control and 100 was complete plant death) at 7, 14, and 21 days after treatment.
(§4) In conformity with the methods outlined in Example 49, the effect of representative experimental compounds on the growth of Amaranthus palmeri (AMAPA), common name, Palmer amaranth, was determined at 2 different levels (respectively, 140 and 280 g acid equivalent (ae)/ha) of the experimental actives tested. Plants were treated with one of the compounds, a control plant was not treated. Twenty-one days after treatment, the plants were measured. The data is present as a percent reduction in plant size relative to the untreated control.

[2] = test system: Conyza canadensis (L.) (ERICA); assay type: in vivo, Conyza canadensis (L.) (Horseweed); conditions: Erigeron canadensis, post-emergence, 504 h, ERICA, postemergence, read-out: Control/Injury; for pest or weed control at 140 g/ha: rate 140 g ae/ha; for pest or weed control at 280 g/ha: rate 280 g ae/ha
Method: as §1, §2, §3
as §4, with “Conyza canadensis (L.), (ERICA),” for “Amaranthus palmeri (AMAPA),”, “Horseweed,” for “Palmer amaranth,”

Kochia scoparia (KCHSC) = assay type: in vivo; conditions: KCHSC, postemergence; for pest or weed control at 140 g/ha / pest or weed control at 280 g/ha: Bassia scoparia, post-emergence, 504 h, read-out: Control/Injury; for pest or weed control at 280 g/ha: rate 280 g ae/ha
Method: as §1, §2, §3
as §4, with “Kochia scoparia (KCHSC)” for “Amaranthus palmeri (AMAPA), common name, Palmer amaranth,”

[3] = test system: Ambrosia artemisiifolia (AMBEL); assay type: in vivo, Ambrosia artemisiifolia (common ragweed); conditions: post-emergence, 504 h, AMBEL, postemergence, read-out: Control/Injury; for pest or weed control at 140 g/ha: rate 140 g ae/ha; for pest or weed control at 280 g/ha: rate 280 g ae/ha
Method: as §1, §2, §3
as §4, with “Ambrosia artemisiifolia (AMBEL), (common ragweed),” for “Amaranthus palmeri (AMAPA), common name, Palmer amaranth,”

Amaranthus rudis (AMATA) = assay type: in vivo, Amaranthus rudis (tall water hemp); conditions: Amaranthus tuberculatus, post-emergence, 504 h, AMATA, postemergence, read-out: Control/Injury; for pest or weed control at 140 g/ha: rate 140 g ae/ha; for pest or weed control at 280 g/ha: rate 280 g ae/ha
Method: as §1, §2, §3
as §4, with “rudis (AMATA),” for “palmeri (AMAPA),”, “name tall water hemp,” for “name, Palmer amaranth,”

[4] = rate 140 g ae/ha, percent reduction vs untreated, 21 days after treatment
[5] = percent reduction vs untreated, 21 days after treatment
[6] = percent reduction vs untreated control, 21 days after treatment
[7] = R-AMAPA, percent reduction vs untreated control, 21 days after treatment

SMILES | pest or weed control at 140 g/ha (Kochia scoparia (KCHSC); [4]) [%] | pest or weed control at 280 g/ha (Kochia scoparia (KCHSC); [5]) [%] | pest or weed control at 140 g/ha [3] [%] | pest or weed control at 280 g/ha [3] [%] | pest or weed control at 140 g/ha (Amaranthus rudis (AMATA)) [%] | pest or weed control at 280 g/ha (Amaranthus rudis (AMATA)) [%] | pest or weed control at 140 g/ha [2, 6] [%] | pest or weed control at 280 g/ha [2, 6] [%] | pest or weed control at 140 g/ha [1, 7] [%] | pest or weed control at 280 g/ha [1, 7] [%] | other results
COc1c(Cl)ccc(Cl)c1C(=O)Nc1ccon1 [Compound A-106] | 3 | 3 | 25 | 28 | 25 | 28 |  |  |  |  | pest or weed control at 140 g/ha ([1]; AMAPA): 25%; pest or weed control at 280 g/ha ([1]; AMAPA): 20%; pest or weed control at 140 g/ha [2]: 5%; pest or weed control at 280 g/ha [2]: 10%
COc1c(Cl)ccc(Cl)c1C(=O)Oc1nccs1 [Compound A-103] | 0 | 3 | 28 | 12 | 8 | 18 |  |  |  |  | pest or weed control at 140 g/ha ([1]; AMAPA): 35%; pest or weed control at 280 g/ha ([1]; AMAPA): 30%; pest or weed control at 140 g/ha [2]: 0%; pest or weed control at 280 g/ha [2]: 3%
COc1c(Cl)ccc(Cl)c1C(=O)O/N=C(\N)c1cc(Cl)cc(Cl)c1 [Compound A-16] |  |  |  |  |  |  | 68 | 78 |  |  | 
COc1c(Cl)ccc(Cl)c1C(=O)O/N=C(\N)CCCCCC/C(N)=N/OC(=O)c1c(Cl)ccc(Cl)c1OC [Compound A-147] | 93 | 88 | 80 | 81 | 59 | 49 |  |  | 43 | 38 | pest or weed control at 140 g/ha [2, 5]: 50%; pest or weed control at 280 g/ha [2, 5]: 60%
COc1c(Cl)ccc(Cl)c1C(=O)O/N=C(\N)CC/C(N)=N/OC(=O)c1c(Cl)ccc(Cl)c1OC [Compound A-140] | 95 | 98 | 94 | 94 | 70 | 68 |  |  | 54 | 59 | pest or weed control at 140 g/ha [2, 5]: 83%; pest or weed control at 280 g/ha [2, 5]: 83%
C=CCONC(=O)c1c(Cl)ccc(Cl)c1OC [Compound A-101] | 0 | 0 | 25 | 15 | 18 | 33 |  |  |  |  | pest or weed control at 140 g/ha ([1]; AMAPA): 18%; pest or weed control at 280 g/ha ([1]; AMAPA): 13%; pest or weed control at 140 g/ha [2]: 0%; pest or weed control at 280 g/ha [2]: 8%
COc1c(Cl)ccc(Cl)c1C(=O)O/N=C(\N)c1ccc2[nH]cnc2c1 [Compound A-29] |  |  |  |  |  |  | 40 | 40 |  |  | 
COc1c(Cl)ccc(Cl)c1C(=O)O/N=C(\C)c1cccnc1 [Compound A-47] |  |  | 85 | 100 |  | 75 |  |  | 90 | 95 | pest or weed control at 140 g/ha (Kochia scoparia (KCHSC); rate 140 g ae/ha): 98%; pest or weed control at 280 g/ha (Kochia scoparia (KCHSC)): 100%
COc1c(Cl)ccc(Cl)c1C(=O)C(Cl)(Cl)Cl [Compound A-96] |  |  |  |  |  |  | 0 | 0 |  |  | 
COc1c(Cl)ccc(Cl)c1C(=O)O/N=C(\N)c1cccc(Cl)c1 [Compound A-12] |  |  |  |  |  |  | 72 | 87 |  |  | 
COc1c(Cl)ccc(Cl)c1C(=O)OCc1ccccc1 [Compound A-44] |  |  |  | 80 |  | 60 |  |  | 80 | 85 | pest or weed control at 140 g/ha (Kochia scoparia (KCHSC); rate 140 g ae/ha): 60%; pest or weed control at 280 g/ha (Kochia scoparia (KCHSC)): 90%; Control/Injury (Kochia scoparia (KCHSC); rate 140 g ae/ha): 60
COc1c(Cl)ccc(Cl)c1C(=O)O/N=C/c1ccc(/C=N/OC(=O)c2c(Cl)ccc(Cl)c2OC)cc1 [Compound A-57] |  |  | 95 | 98 | 95 |  |  |  |  | 100 | pest or weed control at 140 g/ha (Kochia scoparia (KCHSC); rate 140 g ae/ha): 92%; pest or weed control at 280 g/ha (Kochia scoparia (KCHSC)): 100%
COc1c(Cl)ccc(Cl)c1C(=O)Nc1ccncc1 [Compound A-61] |  |  | 99 | 98 | 85 | 90 |  |  | 85 | 100 | pest or weed control at 140 g/ha (Kochia scoparia (KCHSC); rate 140 g ae/ha): 98%; pest or weed control at 280 g/ha (Kochia scoparia (KCHSC)): 99%
COc1c(Cl)ccc(Cl)c1C(=O)O/N=C(\N)c1cccc2ccccc12 [Compound A-30] |  |  |  |  |  |  | 50 | 22 |  |  | 
COc1c(Cl)ccc(Cl)c1C(=O)O/N=C(\N)c1ccc2[nH]ccc2c1 [Compound A-28] |  |  |  |  |  |  | 70 | 83 |  |  | 
